From the Kinase Knowledgebase extract (Sharma et al. 2016)

What follows are molecules tested against EGFR (human) (UniProt P00533).
Sequence of EGFR (human) (P00533 whole entry, looked up): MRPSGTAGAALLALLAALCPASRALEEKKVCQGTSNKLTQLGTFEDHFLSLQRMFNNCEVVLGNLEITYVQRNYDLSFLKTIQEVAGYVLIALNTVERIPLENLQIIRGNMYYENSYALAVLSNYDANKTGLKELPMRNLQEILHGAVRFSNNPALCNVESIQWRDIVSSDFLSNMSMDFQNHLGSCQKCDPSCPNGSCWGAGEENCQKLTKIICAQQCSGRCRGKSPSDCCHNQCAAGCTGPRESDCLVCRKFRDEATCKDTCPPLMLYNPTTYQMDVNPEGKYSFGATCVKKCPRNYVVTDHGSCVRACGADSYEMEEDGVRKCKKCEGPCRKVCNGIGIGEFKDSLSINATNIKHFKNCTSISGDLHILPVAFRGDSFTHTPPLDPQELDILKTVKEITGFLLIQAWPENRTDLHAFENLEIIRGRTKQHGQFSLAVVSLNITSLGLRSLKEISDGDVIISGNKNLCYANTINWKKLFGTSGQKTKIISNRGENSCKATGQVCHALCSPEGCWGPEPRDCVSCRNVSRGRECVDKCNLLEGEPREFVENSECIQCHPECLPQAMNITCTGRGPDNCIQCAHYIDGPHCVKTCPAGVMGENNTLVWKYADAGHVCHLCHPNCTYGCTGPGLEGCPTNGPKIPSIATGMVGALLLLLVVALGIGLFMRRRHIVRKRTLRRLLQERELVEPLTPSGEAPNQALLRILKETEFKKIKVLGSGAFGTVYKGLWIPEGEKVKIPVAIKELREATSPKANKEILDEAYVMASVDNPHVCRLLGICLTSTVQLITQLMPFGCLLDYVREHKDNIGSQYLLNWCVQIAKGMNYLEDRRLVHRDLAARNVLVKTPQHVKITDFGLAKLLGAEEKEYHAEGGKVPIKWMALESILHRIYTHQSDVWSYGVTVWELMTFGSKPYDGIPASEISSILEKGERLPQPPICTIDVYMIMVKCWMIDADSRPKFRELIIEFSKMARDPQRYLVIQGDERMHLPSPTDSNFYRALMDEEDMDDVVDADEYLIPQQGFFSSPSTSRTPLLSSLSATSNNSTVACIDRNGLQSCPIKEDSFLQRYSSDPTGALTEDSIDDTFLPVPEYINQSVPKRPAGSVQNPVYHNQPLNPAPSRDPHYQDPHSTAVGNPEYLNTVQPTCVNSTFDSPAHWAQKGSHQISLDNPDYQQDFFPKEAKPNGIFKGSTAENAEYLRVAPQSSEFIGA

Ki	Compound
43 nM	Brc1ccc2[nH]c3nccc(NCc4ccccc4)c3c2c1
30 nM	C[C@H](Nc1ccnc2[nH]c3ccccc3c12)c1ccccc1
1040 nM	Clc1ccc(CNc2ccnc3[nH]c4ccccc4c23)cc1
840 nM	C[C@@H](Nc1ccnc2[nH]c3ccccc3c12)c1ccccc1
360 nM	c1ccc2c(CNc3ccnc4[nH]c5ccccc5c34)cccc2c1
1040 nM	c1ccc(CCNc2ccnc3[nH]c4ccccc4c23)cc1
99 nM	Clc1cccc(CNc2ccnc3[nH]c4ccccc4c23)c1
85 nM	c1ccc(CNc2ccnc3[nH]c4ccccc4c23)cc1
3830 nM	c1cncc(CNc2ccnc3[nH]c4ccccc4c23)c1
450 nM	COc1ccc(CNc2ccnc3[nH]c4ccccc4c23)cc1
